Tests used:
PDGFRα = PDGFRα (Homo sapiens, UniProt P16234); test: Kinase inhibition activity test, isotope labeling: PDGFRα; type: biochemical; details: test compound at a concentration of 10 μM; for inhibition at 10 µM: read-out: Activity inhibition rate PDGFRα (h)
Description: (§1) The purpose of this experiment was to test the inhibitory activity of the compound of the invention for in vitro kinase with the isotope labeling method (the γ phosphate group on ATP was labeled). In this experiment, the in vitro activity inhibition of such kinases as FLT3, VEGFR2, FLT1, FLT4, RET, c-RAF, B-RAF, c-KIT, PDGFα, PDGFβ, FGFR2, FGFR1, EphA2, EphB2, SRC, ABL, ALK and Met was tested respectively. Staurosporine was reference molecule (or referred to as positive control). The kinase inhibition activity of the test compound was expressed by half-inhibitory concentration (IC50) or the kinase activity inhibition rate of the test compound at a concentration of 10 μM. The IC50 value could be obtained by calculating the kinase activity inhibition rate of the test compound at different concentrations.
(§2) 20 mM 3-(N-morpholinyl)propanesulfonic acid (MOPS); 1 mM ethylenediaminetetraacetic acid (EDTA), 0.01% Brij 35 (Brij-35), 5% glycerol, 0.1% mercaptoethanol, 1 mg/mL bovine serum albumin (BSA), 10 mM manganous dichloride solution (MnCl2), 0.1 mg/mL glutamic acid/tyrosine (4:1) polypeptide (poly(Glu, Tyr)4:1), 50 μM EAIYAAPFAKKK (substrate of FLT3), 0.33 mg/mL myelin basic protein (substrate of VEGFR2), 250 μM KKKSPGEYVNIEFG (substrate of FLT1(h)), 500 μM GGEEEEYFELVKKKK (substrate of FLT4(h)), 250 μM KKKSPGEYVNIEFG (substrate of RET), 0.66 mg/mL myelin basic protein (substrate of C-RAF), 250 μM GGMEDIYFEFMGGKKK (substrate of c-Kit), 250 μM GGMEDIYFEFMGGKKK (substrate of PDGFα), 250 μM KKKSPGEYVNIEFG (substrate of FGFR1), […] GGEEEEYFELVKKKK (substrate of SRC), 50 μM EAIYAAPFAKKK (substrate of ABL), 250 μM KKKSPGEYVNIEFG (substrate of ALK), 250 μM KKKSPGEYVNIEFG (substrate of Met(h)), 10 mM magnesium acetate and γ-^33 P-ATP solution, stop buffer (3% phosphate buffer), washing buffer (75 mM phosphate solution), methanol, Filtermat A membrane, FLT3, VEGFR2, FLT3, VEGFR2, FLT1, FLT4, RET, c-RAF, B-RAF, c-KIT, PDGFRα, PDGFRβ, FGFR2, FGFR1, EphA2, EphB2, SRC, ABL, ALK, Met and other kinases, and the test compounds.
(§3) Buffers (8 mM MOPS with pH value of 7.0, 0.2 mM EDTA and 10 mM MnCl2), (5-10 mU) kinases to be tested (FLT3, VEGFR2, FLT1, FLT4, RET, c-RAF, B-RAF, c-KIT, PDGFRα, PDGFRβ, FGFR2, FGFR1, EphA2, EphB2, SRC, ABL, ALK and Met), substrates of kinases to be tested (refer to experimental materials), 10 mM magnesium acetate and γ-^33 P-ATP solution, and test compounds at different concentrations were added to a reaction tube orderly. […] Reaction was terminated with 5 μL 3% phosphate buffer finally, and 10 μL reaction solution was titrated to the Filtermat A membrane; solution was washed for 3 times with 75 mM phosphate solution with each time lasting 5 minutes, and then washed once with methanol. Finally, the Filtermat A membrane was dried, and scintillation counting was performed on the membrane, with scintillation count reflecting the phosphorylation degree of the substrates, so that the activity inhibition of kinase could be characterized.

Abl/Abl (T315I)(h) = test: Kinase inhibition activity test, isotope labeling: Abl; type: biochemical, human; details: test compound at a concentration of 10 μM
Description: as §1, §2, §3

[1] = test system: human leukemia cell line MV4-11; test: In vitro tumor cell proliferation inhibition (MTT): MV4-11; type: cell-based
Source text: (§4) The purpose of the experiment was to test the inhibition activity of the compounds of the invention for in vitro human tumor cell proliferation by the methyl thiazolyl tetrazolium (MTT) colorimetry.
(§5) Main reagents: RPMI-1640, fetal bovine serum, pancreatin, etc. were purchased from Gibco BRL Company (Invitrogen Corporation, USA) and IMDM medium that was purchased from American Type Culture Collection (ATCC). Methyl thiazolyl tetrazolium (MTT) and dimethyl sulfoxide (DMSO) were products from Sigma Company (USA). Pyrazolopyrimidine derivatives were composed by the inventor. During in vitro experiment, 100% DMSO was prepared into 10 mM storage solution, the solution was stored in a refrigerator at −20° C. for future use, and was diluted to the required concentration with complete culture solution before use.
(§6) Cell line and culture: Human leukemia cell line MV4-11, Jurkat, K562, human thyrophyma cell line TT, human gastric carcinoma cell line MKN-45, human malignant melanoma cell lines A375 and A875, human pancreatic carcinoma cell line panc-1, human cervical carcinoma cell line HELA, human colorectal carcinoma cell line HCT116, etc. were purchased from American type culture collection and were preserved by this laboratory. All leukemia cell lines (except MV4-11), gastric carcinoma cell lines and thyrophyma cell lines were cultured in RPMI-1640 complete medium containing 10% fetal bovine serum, 100 U/mL penicillin and 100 μg/mL streptomycin at 37° C. in 5% CO2. The remaining cell lines were cultured in DMEM complete medium containing 10% fetal bovine serum (containing 20% MV4-11 cell), 100 U/mL penicillin and 100 µg/mL streptomycin at 37° C. in 5% CO2.
(§7) Cell suspension with cell concentration of 1-2×10^4/mL was adjusted with the complete cell medium and inoculated in a 96-well plate, with each well filled with 200 μl cell suspension that was cultured overnight. On the next day, supernatant was sucked and abandoned (supernatant was sucked upon centrifugation of suspension cells), and then cells were processed with test compounds at gradient concentrations respectively. Meanwhile, a negative control group free from drug and a solvent control group with equal volume were set, and the DMSO concentration was 0.1%. Each dose group was provided with three wells and cultured at 37° C. in 5% CO2. After 72 hours, 20 μl 5 mg/mL MTT reagent was added to each well, and cultured for another 2 to 4 hours, the supernatant was abandoned; 150 μL DMSO was added to each well again, vibrated and mixed evenly for 15 minutes; the absorbance (A) values (proportional to living cell amount) were determined with a microplate reader (λ=570 nm) and averaged. […] Experiment was repeated for 3 times at least. Experimental data were expressed with means, data statistics were tested by t, and P<0.05 means that difference has a statistical significance. The cell proliferation inhibition effects of all compounds as follows are expressed by IC50 or inhibition rate.

[2] = test system: human gastric carcinoma cell line MKN-45; test: In vitro tumor cell proliferation inhibition (MTT): MKN-45; type: cell-based
Source text: as §4, §5, §6, §7

[3] = test system: human leukemia cell line K562; test: In vitro tumor cell proliferation inhibition (MTT): K562; type: cell-based
Source text: as §4, §5, §6, §7

[4] = test system: human cervical carcinoma cell line HELA; test: In vitro tumor cell proliferation inhibition (MTT): HELA; type: cell-based; details: 72 hours
Source text: as §4, §5, §6, §7

[5] = test system: human thyrophyma cell line TT; test: In vitro tumor cell proliferation inhibition (MTT): TT; type: cell-based; details: Homo sapiens, 72 h
Source text: as §4, §5, §6, §7

PDGFRα, sequence (P16234 24-1089): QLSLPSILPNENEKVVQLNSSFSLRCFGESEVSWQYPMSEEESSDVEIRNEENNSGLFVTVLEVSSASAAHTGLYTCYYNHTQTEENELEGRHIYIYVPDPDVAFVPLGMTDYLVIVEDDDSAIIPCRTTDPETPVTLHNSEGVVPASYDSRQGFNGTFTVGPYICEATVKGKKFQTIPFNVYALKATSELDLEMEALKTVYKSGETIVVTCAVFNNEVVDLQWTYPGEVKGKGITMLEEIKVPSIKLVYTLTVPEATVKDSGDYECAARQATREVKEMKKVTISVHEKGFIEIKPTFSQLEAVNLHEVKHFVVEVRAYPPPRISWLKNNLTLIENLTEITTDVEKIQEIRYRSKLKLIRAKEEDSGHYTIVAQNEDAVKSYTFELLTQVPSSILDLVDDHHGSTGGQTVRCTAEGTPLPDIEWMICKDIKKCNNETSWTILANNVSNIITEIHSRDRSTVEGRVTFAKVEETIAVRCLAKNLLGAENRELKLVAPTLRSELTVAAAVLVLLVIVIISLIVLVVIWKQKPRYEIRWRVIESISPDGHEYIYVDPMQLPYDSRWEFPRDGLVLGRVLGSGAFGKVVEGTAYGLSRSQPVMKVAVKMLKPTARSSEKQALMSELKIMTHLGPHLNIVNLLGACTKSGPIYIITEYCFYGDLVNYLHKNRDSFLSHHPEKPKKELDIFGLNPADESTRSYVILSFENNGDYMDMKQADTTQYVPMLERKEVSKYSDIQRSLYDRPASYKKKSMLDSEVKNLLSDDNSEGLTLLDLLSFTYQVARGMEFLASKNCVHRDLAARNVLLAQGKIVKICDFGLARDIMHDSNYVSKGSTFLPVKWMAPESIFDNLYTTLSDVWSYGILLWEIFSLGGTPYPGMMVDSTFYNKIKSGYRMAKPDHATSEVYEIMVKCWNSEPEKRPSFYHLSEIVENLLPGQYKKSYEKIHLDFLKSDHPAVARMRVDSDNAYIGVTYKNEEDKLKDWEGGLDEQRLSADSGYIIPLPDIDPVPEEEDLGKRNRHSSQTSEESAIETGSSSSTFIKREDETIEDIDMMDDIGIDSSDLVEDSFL

Row | Molecule | Activity inhibition rate PDGFRα (h) (PDGFRα) [%] | Activity inhibition rate Abl/Abl (T315I)(h) (Abl/Abl (T315I)(h)) [%] | IC50 ([1]; 72 hours) [µM] | IC50 ([2]; 72 hours) [µM] | IC50 ([3]; 72 hours) [µM] | IC50 [4] [µM] | IC50 ([1]; Homo sapiens, MV4-11, 72 h) [µM] | IC50 ([2]; Homo sapiens, MKN-45, 72 hours) [µM] | IC50 ([3]; Homo sapiens, K562, 72 hours) [µM] | IC50 ([4]; Homo sapiens, HeLa) [µM] | inhibition at 10 µM (PDGFRα) [%] | IC50 [5] [µM]
1 | 1-(4-((1H-pyrazolopyrimidine-4-yl)oxy)-3-fluorophenyl)-3-(3-trifluoromethoxy)phenyl)urea [4a-8] | 64 | 34 | 0.053 | 7.65 | < 50 | 8.49 | – | – | – | – | – | –
2 | 1-(4-((1H-pyrazolopyrimidine-4-yl)oxy)phenyl)-3-(methylcyclohexyl)urea [4a-20] | 93 | 19 | 0.363 | < 50 | < 50 | < 50 | – | – | – | – | – | –
3 | CC(C)c1cccc(NC(=O)Nc2ccc(Oc3ncnc4[nH]ncc34)c(F)c2)c1 [4a-7, 1-(4-((1H-pyrazolopyrimidine-4-yl)oxy)-3-fluorophenyl)-3-(3-isopropylphenyl)urea] | 89 | 60 | 0.011 | < 50 | < 50 | < 50 | – | – | – | – | – | –
4 | O=C(Nc1ccc(Oc2ncnc3[nH]ncc23)c(F)c1)Nc1ccc(Cl)c(C(F)(F)F)c1 [4a-10, 1-(4-((1H-pyrazolopyrimidine-4-yl)oxy)-3-fluorophenyl)-3-(4-chloro-3-(trifluoromethyl)phenyl)urea] | 52 | 67 | 0.009 | 5.28 | < 50 | < 50 | – | – | – | – | – | –
5 | O=C(Nc1ccc(Oc2ncnc3[nH]ncc23)cc1)Nc1cc(C(F)(F)F)cc(C(F)(F)F)c1 [4a-12, 1-(4-((1H-pyrazolopyrimidine-4-yl)oxy)phenyl)-3-(3,5-bis(trifluoromethyl)phenyl)urea] | 52 | 78 | 0.017 | 8.29 | 9.12 | < 50 | – | – | – | – | – | –
6 | O=C(Nc1ccccc1)Nc1ccc(Oc2ncnc3[nH]ncc23)cc1 [4a-15, 1-(4-((1H-pyrazolopyrimidine-4-yl)oxy)phenyl)-3-phenylurea] | 48 | 99 | 0.32 | < 50 | < 50 | < 50 | – | – | – | – | – | –
7 | O=C(Nc1ccc(Oc2ncnc3[nH]ncc23)cc1)Nc1ccc(N2CCOCC2)cc1 [4a-16, 1-(4-((1H-pyrazolopyrimidine-4-yl)oxy)phenyl)-3-(4-morpholinylphenyl)urea] | – | – | – | – | – | – | 0.089 | 3.22 | < 50 | < 50 | – | –
8 | C[C@H](NC(=O)Nc1ccc(Oc2ncnc3[nH]ncc23)cc1)c1ccccc1 [4a-18, (S)-1-(4-((1H-pyrazolopyrimidine-4-yl)oxy)phenyl)-3-(1-phenethyl)urea] | 96 | 45 | 0.112 | < 50 | < 50 | < 50 | – | – | – | – | – | –
9 | C[C@@H](NC(=O)Nc1ccc(Oc2ncnc3[nH]ncc23)cc1)c1ccccc1 [4a-19, (R)-1-(4-((1H-pyrazolopyrimidine-4-yl)oxy)phenyl)-3-(1-phenethyl)urea] | 84 | 21 | 0.124 | < 50 | < 50 | < 50 | – | – | – | – | – | –
10 | O=C(Nc1cccc(Nc2ncnc3[nH]ncc23)c1)Nc1ccc(F)c(Cl)c1 [4b-1] | – | – | – | – | – | – | < 50 | < 50 | 3.45 | < 50 | > 30 | –
11 | C[C@@H](NC(=O)Nc1ccc(Nc2ncnc3[nH]ncc23)cc1)c1ccccc1 [4b-2, (R)-1-(4-(1H-pyrazolopyrimidine-4-amido)phenyl)-3-(1-phenethyl)urea] | – | – | 8.03 | – | – | – | – | < 50 | < 50 | < 50 | > 30 | –
12 | COc1cccc(NC(=O)Nc2ccc(Nc3ncnc4[nH]ncc34)cc2)c1 [4b-3] | – | – | – | – | – | – | 1.65 | < 50 | < 50 | < 50 | > 30 | –
13 | C[C@H](NC(=O)Nc1ccc(Nc2ncnc3[nH]ncc23)cc1)c1ccccc1 [4b-4] | >30 | – | 2.05 | < 50 | < 50 | < 50 | – | – | – | – | – | –
14 | O=C(Nc1ccc(NC(=O)N2C=NC=C3NNC=C32)cc1)Nc1ccc(Cl)c(C(F)(F)F)c1 [4b-5, 1-(4-(1H-pyrazolopyrimidine-4-amido)phenyl)-3-(4-chloro-3-(trifluoromethyl)phenyl)urea] | – | – | – | – | – | – | 0.05 | 7.64 | – | – | > 30 | 9.48
15 | COc1ccc(NC(=O)Nc2ccc(NC(=O)N3C=NC=C4NNC=C43)cc2)cc1 [4b-6, 1-(4-(1H-pyrazolopyrimidine-4-amido)phenyl)-3-(4-methoxyphenyl)urea] | – | – | – | – | – | – | 0.729 | < 50 | < 50 | – | > 30 | –
16 | Cc1cc(C)c(NC(=O)Nc2ccc(NC(=O)N3C=NC=C4NNC=C43)cc2)c(C)c1 [4b-7, 1-(4-(1H-pyrazolopyrimidine-4-amido)phenyl)-3-(2,4,6-trimethylphenyl)urea] | – | – | – | – | – | – | 0.667 | < 50 | < 50 | – | > 30 | –
17 | O=C(Nc1ccc(Sc2ncnc3[nH]ncc23)cc1)Nc1ccc(C(F)(F)F)cc1 [4c-1] | – | >30 | – | – | – | – | 0.012 | – | – | – | > 50 | –

— US9828375B2, “4-position substituted pyrazolopyrimidine derivative, and use thereof in drug preparation” (Guangxi Wuzhou Pharmaceuticals (Group) Co., Ltd., priority 2012, dated 2017)
